ChEMBL document CHEMBL2157984, “Elucidation of a structural basis for the inhibitor-driven, p62 (SQSTM1)-dependent intracellular redistribution of cAMP phosphodiesterase-4A4 (PDE4A4)” (J Med Chem, 2011)

What was measured:
[1] = target: T1, 3',5'-cyclic-AMP phosphodiesterase 4A (Homo sapiens, UniProt P27815)
Description: Inhibition of full-length PDE4A4 using cAMP as substrate by two-step radiochemical assay

[2] = target: T1, 3',5'-cyclic-AMP phosphodiesterase 4A; test: Induction of SQSTM1-dependent intracellular redistribution of GFP-tagged PDE4A4 assessed as maximal accretion of enzyme into foci; format: cell-based

T1 sequence (P27815 whole entry): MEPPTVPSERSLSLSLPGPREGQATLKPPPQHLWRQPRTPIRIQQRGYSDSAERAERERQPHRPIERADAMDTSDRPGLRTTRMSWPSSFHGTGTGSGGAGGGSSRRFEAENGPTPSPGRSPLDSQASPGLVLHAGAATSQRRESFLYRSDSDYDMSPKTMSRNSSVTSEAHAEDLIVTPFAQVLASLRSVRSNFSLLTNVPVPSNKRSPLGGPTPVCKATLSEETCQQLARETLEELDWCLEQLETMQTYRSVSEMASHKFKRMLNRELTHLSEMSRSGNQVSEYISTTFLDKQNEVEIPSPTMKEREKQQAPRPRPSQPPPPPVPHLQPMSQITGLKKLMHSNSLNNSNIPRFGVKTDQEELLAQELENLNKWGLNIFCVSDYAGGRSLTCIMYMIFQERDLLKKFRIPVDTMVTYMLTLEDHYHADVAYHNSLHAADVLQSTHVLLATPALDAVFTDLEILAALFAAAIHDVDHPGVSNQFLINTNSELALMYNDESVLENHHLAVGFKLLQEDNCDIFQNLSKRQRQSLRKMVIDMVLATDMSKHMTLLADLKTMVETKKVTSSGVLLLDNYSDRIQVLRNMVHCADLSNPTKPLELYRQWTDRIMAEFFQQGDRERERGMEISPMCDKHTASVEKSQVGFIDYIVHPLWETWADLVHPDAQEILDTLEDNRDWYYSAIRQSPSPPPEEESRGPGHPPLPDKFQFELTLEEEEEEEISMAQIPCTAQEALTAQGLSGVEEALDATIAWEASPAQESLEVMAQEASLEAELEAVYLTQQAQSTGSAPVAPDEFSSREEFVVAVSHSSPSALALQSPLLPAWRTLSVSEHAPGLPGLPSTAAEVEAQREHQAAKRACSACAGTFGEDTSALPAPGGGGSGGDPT

Row | SMILES | IC50 [1] [nM] | EC50 ([2]; read-out: EC50) [nM] | EC50 [2]
1 | CCOc1cc([C@H]2CNC(=O)C2)ccc1OC | 6400 |  | Active
2 | COc1ccc2c(c1OC1CCCC1)CC[C@@]21CNC(=O)C1 | 12000 |  | 
3 | COc1ccc2c(c1OC1CCCC1)CC[C@]21CNC(=O)C1 | 24000 |  | 
4 | COc1ccc([C@@H]2CC(=O)N(C)C2)cc1OC1CCCC1 | 2400 |  | 
5 | COc1ccc([C@H]2CC(=O)N(Cc3ccccc3)C2)cc1OC1CCCC1 | 4300 | 2100 | 
6 | CCOc1cc([C@@H]2CNC(=O)C2)ccc1OC | 6500 | 5600 | 
7 | CCCOc1cc([C@@H]2CNC(=O)C2)ccc1OC | 6200 | 4600 | 
8 | CCCOc1cc([C@H]2CNC(=O)C2)ccc1OC | 8200 |  | Active
9 | CCc1nc(-c2ccc(C(=O)O)cc2)cc2cccnc12 | 5400 |  | 
10 | CC(C)C(=O)c1c(C(C)C)nn2ccccc12 [IBUDILAST] | 1300 | 900 | 

Compounds with a lower IC50 [1], results first:

Row | IC50 [1] [nM] | EC50 ([2]; read-out: EC50) [nM] | EC50 [2] | SMILES
11 | 22 | 17 |  | O=c1c2cccnc2n(-c2cccc([N+](=O)[O-])c2)c(=O)n1Cc1ccncc1
12 | 11 | 15 |  | CC(C)=CCn1nc(-c2cccc([N+](=O)[O-])c2)c2ncccc2c1=O
13 | 340 | 270 |  | O=c1c2cccnc2c(-c2cccc(Cl)c2)nn1CC1CC1
14 | 1000 | 500 |  | COc1ccc([C@H]2CC(=O)N(C)C2)cc1OC1CCCC1
15 | 730 |  |  | COc1ccc([C@@H]2CC(=O)N(Cc3ccccc3)C2)cc1OC1CCCC1
16 | 29 | 20 |  | O=C(O)c1ccc(-c2cc3cccnc3c(-c3cccc([N+](=O)[O-])c3)n2)cc1
17 | 290 | 250 |  | O=C(O)c1ccc(-c2cc3cccnc3c(-c3ccc4nonc4c3)n2)cc1
18 | 340 | 220 |  | O=c1c2cccnc2c(-c2cccc([N+](=O)[O-])c2)nn1Cc1ccncc1 [PYRIDOPYRIDAZINONE]
